Test results published in patent US11672814B2, “NGNA compositions and methods of use” (priority 2008, dated 2023).
Like-named read-outs stand apart in the source and are kept apart here.

Columns and labels:
HSV-1, SC-16 = test: Virucidal assay, HSV-1 titrated on Vero cells (CPE readout); format: cell-based, Herpes Simplex Virus type 1; details: 10 minutes; for Sample titer: control virus titer 6.25
HRV-16 = test: Virucidal assay, Rhinovirus titrated on Wi-38 cells (CPE readout); format: cell-based, Human Rhinovirus; details: 10 minutes
Feline Calicivirus (FCV) = test: Virucidal assay, Norovirus surrogate virus titrated on CRFK cells (CPE readout); format: cell-based; details: 10 minutes
[1] = system: Influenza B virus B/Malaysia/2506/2004; format: cell-based; details: 10 minutes, MDCK

In the case of `O=C(CO)N[C@H]1[C@H]([C@H](O)[C@H](O)CO)O[C@](O)(C(=O)O)C[C@@H]1O` [NGNA, n-glycolylneuraminic acid], the Virus reduction (HSV-1, SC-16; NGNA 10 nM) is reported as 0.00%, the Sample titer (HSV-1, SC-16; NGNA 10 nM) is reported as 7.00 log10 TCID50/ml and the Virus reduction (HSV-1, SC-16; NGNA 10 μM) is reported as 0.00%. The Sample titer (HSV-1, SC-16; NGNA 10 μM) was 6.25 log10 TCID50/ml, the Virus reduction (HSV-1, SC-16; NGNA 10 mM) was 99.98% and the Sample titer (HSV-1, SC-16; NGNA 10 mM) was 2.50 log10 TCID50/ml. It also gave a Virus reduction (HRV-16; NGNA 10 nM) of 90.00%, a Sample titer (HRV-16; NGNA 10 nM, control virus titer 4.50) of 3.50 log10 TCID50/ml and a Virus reduction (HRV-16; NGNA 10 μM) of 90.00%. For the same molecule, the Sample titer (HRV-16; NGNA 10 μM, control virus titer 4.50) was 3.50 log10 TCID50/ml, the Virus reduction (HRV-16; NGNA 10 mM) was 99.44% and the Sample titer (HRV-16; NGNA 10 mM, control virus titer 4.75) was 2.50 log10 TCID50/ml. The Virus reduction (Feline Calicivirus (FCV); NGNA 10 nM) was 0.00%, the Sample titer (Feline Calicivirus (FCV); NGNA 10 nM, control virus titer 5.50) was 5.50 log10 TCID50/ml and the Virus reduction (Feline Calicivirus (FCV); NGNA 10 μM) was 0.00%. For the same molecule, the Sample titer (Feline Calicivirus (FCV); NGNA 10 μM, control virus titer 5.50) was 5.50 log10 TCID50/ml, the Virus reduction (Feline Calicivirus (FCV); NGNA 10 mM) was 82.21% and the Sample titer (Feline Calicivirus (FCV); NGNA 10 mM, control virus titer 5.25) was 4.50 log10 TCID50/ml. For the same molecule, the Virus reduction ([1]; NGNA 10 nM) was 0.00%, the Virus reduction ([1]; NGNA 10 μM) was 0.00% and the Virus reduction ([1]; NGNA 10 mM) was 99.00%.
